Like-named read-outs stand apart in the source and are kept apart here.
Assay: Ovine plasma pharmacokinetics of PTH 1-34 (four-way randomised cross-over, ELISA)
Type: in vivo
Details: sheep; for half-life: read-out: t1/2 (mean); for bioavailability: relative to intravenous injection, read-out: Fab
Description: Research was conducted in accordance with the requirements of the Animals (Scientific Procedures) Act 1986 (ASPA) under Procedural Project Licence (PPL) number 40/3552 (Protocol 19b/1), between 26 April 2016 and 24 May 2016, at the University of Nottingham, Nottingham, UK (Procedural Establishment Licence (PEL) number PCD 40/2406). The overarching protocol (as detailed in the PPL) was subject to full review by the Animal Welfare and Ethical Review Board (AWERB), and the study-specific protocol received a more localised review by the Named Animal Care and Welfare Officer (NACWO) and Named Veterinary Surgeon (NVS). This research governance is compliant with recommended ethical review processes. In view of the clinical data obtained in the present study, the pharmacokinetics of the Solutol® HS15-based formulation of PTH 1-34 were further investigated in sheep. The sheep study replicated the clinical trial in that it tested the nasal solution formulation of PTH 1-34 as well as a subcutaneous injection, but also evaluated pharmacokinetics of PTH 1-34 following intravenous injection and an intranasal PTH1-34 dry powder formulation.
The study was conducted according to a four-way randomised cross-over study in four (Mule crossbred) female sheep (obtained from a reputable commercial supplier). The sheep were group housed in a heat and ventilation air conditioned (HVAC) facility for the duration of the study, and were uniquely identified by a combination of ear tag and electronic transponder. On arrival, the animals were also randomly assigned a unique identifier by the facilities Research Animal Facility Management system (LabTracks, Locus Technology Inc., Manchester, MD, USA) and an abbreviated study number (1, 2, 3 and 4). To aid identification during the study, the fleece of each animal was marked with the abbreviated study number by spraying with a commercial stockmarker (dye). The animals were acclimatised for 17 days prior to initiation of treatments. The animals were subject to a health inspection by the NVS prior to and after use in the study, and were monitored during the study by the PPL holder and facility personnel supported by the NACWO, NVS and University of Nottingham personnel. Animals were weighed weekly during the study (Supplementary Materials: Section S3).
Administration of the PTH 1-34 was either as an intranasal liquid, intranasal dry powder, subcutaneous injection or intravenous injection. The treatments were randomised according to a Latin Square design using an online randomisation programme (Experimental Design Generator and Randomiser (Edgar) accessed from: http://www.edgarweb.org.uk/) with a minimum of a two day washout period between study legs. Immediately prior to dosing, the four sheep were sedated by an intravenous injection of ketamine hydrochloride (100 mg/mL solution administered at 2.25 mg/kg). This provided approximately 3 min sedation, during which period the sheep were dosed.
The formulations were prepared at Critical Pharmaceuticals’ Laboratories and transported, refrigerated, to the study facility. The intranasal liquid was administered via the right nostril using a LMA™ MAD110 Nasal™ Intranasal mucosal atomization device (MAD110) (Wolfe-Tory Medical, Inc., Salt Lake City, UT, USA) customised for use in sheep (to allow circumvention of the nostril and delivery of the dose to the respiratory mucosa of the nasal cavity). The intranasal powder formulation was also administered via the right nostril using a 5 mm oral/nasal tracheal tube Portex® Blueline 100/111/050, (Smiths Medical, Ashford, UK) and one-way bellows. The amount of powder administered to each animal, and thus the nominal dose of PTH 1-34, was determined by weighing the devices before and after the nasal administrations. The subcutaneous and intravenous bolus injections of PTH 1-34 were administered into the flank and a jugular vein, respectively. […]

[1] = female, Mule crossbred, 20 ug, four-way crossover, intravenous bolus (jugular vein), solution without Solutol HS15, 20 μg, plasma ELISA, mean ± SE, n = 4
[2] = female, Mule crossbred, inhaled or intranasal, 200 ug, four-way crossover, intranasal liquid with 7.5% w/v Solutol HS15, 200 μg, single nostril, plasma ELISA, mean ± SE, n = 4
[3] = female, Mule crossbred, inhaled or intranasal, 200 ug, four-way crossover, intranasal liquid with 7.5% w/v Solutol HS15, 200 μg, single nostril, plasma ELISA, mean ± SE, n = 4, not dose-corrected
[4] = female, Mule crossbred, inhaled or intranasal, four-way crossover, intranasal dry powder (1% PTH 1-34, 39% gellan gum, 40% Solutol HS15, 20% trehalose), nominal 200 μg (estimated 130 ± 15 μg), plasma ELISA, mean ± SE, n = 4
[5] = female, Mule crossbred, sc, 20 ug, four-way crossover, subcutaneous injection into flank, solution without Solutol HS15, 20 μg, plasma ELISA, mean ± SE, n = 3
[6] = four-way crossover, intranasal dry powder with Solutol HS15 and gellan gum, nominal 200 μg (estimated 130 ± 15 μg), plasma ELISA, n = 4
[7] = four-way crossover, intranasal liquid with 7.5% w/v Solutol HS15, 200 μg, single nostril, plasma ELISA, n = 4
[8] = four-way crossover, intravenous bolus (jugular vein), solution without Solutol HS15, 20 μg, plasma ELISA, n = 4
[9] = four-way crossover, subcutaneous injection into flank, solution without Solutol HS15, 20 μg, plasma ELISA, n = 3

CC[C@H](C)[C@H](NC(=O)[C@H](CCC(=O)O)NC(=O)[C@H](CO)NC(=O)[C@@H](NC(=O)[C@@H](N)CO)C(C)C)C(=O)N[C@@H](CCC(N)=O)C(=O)N[C@@H](CC(C)C)C(=O)N[C@@H](CCSC)C(=O)N[C@@H](Cc1cnc[nH]1)C(=O)N[C@@H](CC(N)=O)C(=O)N[C@@H](CC(C)C)C(=O)NCC(=O)N[C@@H](CCCCN)C(=O)N[C@@H](Cc1cnc[nH]1)C(=O)N[C@@H](CC(C)C)C(=O)N[C@@H](CC(N)=O)C(=O)N[C@@H](CO)C(=O)N[C@@H](CCSC)C(=O)N[C@@H](CCC(=O)O)C(=O)N[C@@H](CCCN=C(N)N)C(=O)N[C@H](C(=O)N[C@@H](CCC(=O)O)C(=O)N[C@@H](Cc1c[nH]c2ccccc12)C(=O)N[C@@H](CC(C)C)C(=O)N[C@@H](CCCN=C(N)N)C(=O)N[C@@H](CCCCN)C(=O)N[C@@H](CCCCN)C(=O)N[C@@H](CC(C)C)C(=O)N[C@@H](CCC(N)=O)C(=O)N[C@@H](CC(=O)O)C(=O)N[C@H](C(=O)N[C@@H](Cc1cnc[nH]1)C(=O)N[C@@H](CC(N)=O)C(=O)N[C@@H](Cc1ccccc1)C(=O)O)C(C)C)C(C)C [PTH 1-34, PTH 1-34 acetate]
AUC(0-inf) [1]: 0.18 ng·h/mL | AUC(0-t) [1]: 0.178 ng·h/mL | Tmax [1]: 2 min | half-life [1]: 75 ± 18.1 min | Cmax (female, Mule crossbred, 20 ug, four-way crossover, intravenous bolus (jugular vein), solution without Solutol HS15, 20 μg, plasma ELISA, observed, mean ± SE, n = 4): 1.14 ± 0.198 ng/mL | Cmax [2]: 0.047 ± 0.021 ng/mL | Tmax [2]: 10 min | AUC(0-inf) [3]: 0.0204 ng·h/mL | AUC(0-t) [3]: 0.0182 ng·h/mL | half-life [2]: 109 ± 43.7 min | Cmax [4]: 0.008 ± 0.003 ng/mL | Tmax [4]: 11 min | half-life (female, Mule crossbred, inhaled or intranasal, four-way crossover, intranasal dry powder with Solutol HS15 and gellan gum, nominal 200 μg (estimated 130 ± 15 μg), plasma ELISA, mean ± SE, n = 4): 96 ± 29.8 min | C0 (female, Mule crossbred, plasma, 20 ug, intravenous bolus 20 μg, back-extrapolated from the first two concentration values, mean ± SE, read-out: C0 (initial plasma concentration, extrapolation to t = 0)): 2.18 ± 0.696 ng/mL | F rel (female, Mule crossbred, plasma, inhaled or intranasal, 200 ug, intranasal liquid with 7.5% w/v Solutol HS15, 200 μg, relative to subcutaneous injection, from AUCINF, dose-corrected, mean ± SE, n = 4, read-out: Frel): 1.4 ± 0.31% | bioavailability (female, Mule crossbred, plasma, inhaled or intranasal, 200 μg, intranasal dry powder with Solutol HS15 and gellan gum, from AUCINF, corrected with estimated dose, mean ± SE, n = 4): 0.7 ± 0.03% | F rel (female, Mule crossbred, plasma, inhaled or intranasal, 200 μg, intranasal dry powder with Solutol HS15 and gellan gum, relative to subcutaneous injection, from AUCINF, corrected with estimated dose, mean ± SE, n = 4, read-out: Frel): 1 ± 0.12% | bioavailability (female, Mule crossbred, plasma, inhaled or intranasal, 200 ug, intranasal liquid with 7.5% w/v Solutol HS15, 200 μg, from AUCINF, dose-corrected, mean ± SE, n = 4): 1.1 ± 0.26% | F rel (female, Mule crossbred, plasma, iv, 20 ug, intravenous bolus 20 μg, relative to subcutaneous injection, calculated for n = 3, read-out: Frel, n = 3): 140% | F rel (female, Mule crossbred, plasma, iv, 20 ug, intravenous bolus 20 μg, relative to subcutaneous injection, from AUCINF, mean ± SE, n = 4 (average subcutaneous AUCINF used for Sheep 1), read-out: Frel): 156 ± 24% | bioavailability (female, Mule crossbred, plasma, sc, 20 ug, subcutaneous injection into flank, 20 μg, from AUCINF, mean ± SE, n = 3): 77 ± 13.7% | AUC(0-inf) [5]: 0.124 ng·h/mL | AUC(0-t) [5]: 0.12 ng·h/mL | Cmax [5]: 0.121 ± 0.047 ng/mL | Tmax [5]: 12 min | half-life [5]: 54 ± 8.7 min | Tmax (median) [6]: 8 min | t1/2 (median) [6]: 71 min | Tmax (median) [7]: 10 min | t1/2 (median) [7]: 77 min | Tmax (mean) (four-way crossover, intravenous bolus (jugular vein), solution without Solutol HS15, 20 μg, plasma ELISA, mean ± SE, n = 4): 2 min | Tmax (median) [8]: 2 min | t1/2 (median) [8]: 78 min | Tmax (median) [9]: 10 min | t1/2 (median) [9]: 47 min | Frel (intranasal liquid with 7.5% w/v Solutol HS15, 200 μg, relative to subcutaneous injection, from AUCINF, dose-corrected, mean ± SE, n = 4): 1.4 ± 0.3% | time by which concentrations had returned to near baseline values (intranasal liquid with Solutol HS15, 200 μg, post-dose): ≤ 30 min | time of return to near baseline (intravenous bolus 20 μg): 30 to 45 min | Fab range (subcutaneous injection 20 μg, relative to intravenous, range): 55–108%
